pIC50: −log10 of the molar value. Activity calls are given as the source filed them. No cut-off for these calls is given here. *1 amine or outer side, *2 acyl side, *3 side chain or, on linkers, in order; H or OH if unused. Where a SMILES comes first, the peptide text is derived from it. [ ]: non-standard residue; d: D form. The star is where a group is joined. X2 = CCCC[C@@H](C(=O)[*:2])n1cc([C@H](Cc2c[nH]c3ccccc23)N[*:1])nn1; X4 = C[C@H](N[*:1])c1cn([C@@H](Cc2ccc(O)cc2)C(=O)[*:2])nn1; DOTA = O=C(O)CN1CCN(CC(=O)O)CCN(CC(=O)*)CCN(CC(=O)O)CC1; X3 = O=C([C@H](Cc1c[nH]c2ccccc12)n1cc(CN[*:1])nn1)[*:2]; X5 = C[C@@H](C(=O)[*:2])n1cc([C@@H](CCC(=O)O)N[*:1])nn1; X1 = O=C(Cn1cc([C@H](Cc2ccc(O)cc2)N[*:1])nn1)[*:2]; Nle = CCCC[C@H](N)C(=O)O
Legend:
[1] = Lipophilicity, log D of compound in PBS buffer at 0.25 MBq and pH 7.4 using 177Lu labeled compound by shake-flask method; assay type: physicochemical
[2] = Half life in human plasma at 7.5 MBq measured up to 24 hrs at 37 degree C using 177Lu labeled compound by gamma-HPLC analysis; assay type: ADME, cell-free
[3] = Stability of compound in human plasma at 7.5 MBq assessed as intact compound measured after 24 hrs using 177Lu labeled compound by gamma-HPLC analysis; assay type: ADME, cell-free; conditions: for remaining at 24 h, 7.5 MBq: read-out: Stability; for Stability: 24 h
[4] = molecular target: T1, Gastrin/cholecystokinin type B receptor (Homo sapiens, UniProt P32239); assay: Displacement of [177Lu] PP-F11N from CCK2R (unknown origin) transfected in A431 cells incubated for 1 hr at 4 degree C followed by compound washout with PBS buffer using Lu3+ labeled compound by Cobra-2 gamma counter method; assay type: cell-based
T1 sequence (P32239 whole entry): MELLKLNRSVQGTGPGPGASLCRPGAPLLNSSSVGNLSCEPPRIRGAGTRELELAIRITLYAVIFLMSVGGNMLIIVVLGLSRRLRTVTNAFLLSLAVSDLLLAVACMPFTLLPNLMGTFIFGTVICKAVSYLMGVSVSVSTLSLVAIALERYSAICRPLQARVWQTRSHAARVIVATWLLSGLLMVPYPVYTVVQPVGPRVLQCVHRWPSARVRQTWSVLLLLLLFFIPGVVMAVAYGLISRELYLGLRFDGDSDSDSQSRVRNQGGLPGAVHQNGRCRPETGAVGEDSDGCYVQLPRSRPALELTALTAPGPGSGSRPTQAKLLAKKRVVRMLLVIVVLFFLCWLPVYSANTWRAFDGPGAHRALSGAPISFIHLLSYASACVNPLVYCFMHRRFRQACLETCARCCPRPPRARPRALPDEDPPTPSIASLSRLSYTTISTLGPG

[5] = Drug uptake in tumor of CD1 nu/nu mouse xenografted with human A431 cells transfected with CCK2R at 0.5 MBq after 4 hrs using 177Lu labeled compound by Cobra-2 gamma counter method relative to control; assay type: ADME, tissue-based, Neoplasm
[6] = molecular target: T2, Gastrin/cholecystokinin type B receptor (Homo sapiens) (UniProt P32239); assay: Binding affinity to CCK2R (unknown origin) expressed in human A431 cells assessed as receptor-mediated drug internalization at 5 kBq incubated up to 240 mins using 177Lu labeled compound by gamma counting method relative to control; assay type: cell-based
T2 sequence (whole entry): T1 sequence (P32239 whole entry)

[7] = molecular target: T2, Gastrin/cholecystokinin type B receptor (Homo sapiens); assay: Binding affinity to CCK2R (unknown origin) expressed in human A431 cells assessed as receptor-mediated drug internalization at 5 kBq incubated 4 hrs using 177Lu labeled compound by gamma counting method relative to control; assay type: cell-based
[8] = molecular target: T2, Gastrin/cholecystokinin type B receptor (Homo sapiens); assay: Potency index, ratio of [Nle15]MG11 IC50 to test compound IC50 for displacement of [177Lu] PP-F11N from CCK2R (unknown origin) transfected in A431 cells incubated for 1 hr at 4 degree C followed by compound washout with PBS buffer using Lu3+ labeled compound by Cobra-2 gamma counter method; assay type: cell-based
[9] = Ratio of drug uptake in tumor to kidney in CD1 nu/nu mouse xenografted with human A431 cells transfected with CCK2R at 0.5 MBq after 4 hrs using 177Lu labeled compound by Cobra-2 gamma counter method; assay type: ADME, tissue-based
[10] = Drug uptake in tumor of CD1 nu/nu mouse xenografted with human A431 cells transfected with CCK2R at 0.5 MBq after 24 hrs using 177Lu labeled compound by Cobra-2 gamma counter method relative to control; assay type: ADME, tissue-based, Neoplasm
[11] = Drug recovery in tumor of CD1 nu/nu mouse xenografted with human A431 cells transfected with CCK2R at 0.5 MBq after 24 hrs using 177Lu labeled compound by Cobra-2 gamma counter method relative to control; assay type: ADME, tissue-based, Neoplasm
[12] = Drug uptake in tumor of CD1 nu/nu mouse xenografted with human A431 cells transfected with CCK2R at 0.5 MBq after 1 hr using 177Lu labeled compound by Cobra-2 gamma counter method; assay type: ADME, tissue-based, Neoplasm
[13] = Ratio of half life of compound to [Nle15]MG11 in human plasma at 7.5 MBq measured up to 24 hrs at 37 degree C using 177Lu labeled compound by gamma-HPLC analysis; assay type: ADME, cell-free
[14] = Drug uptake in tumor of CD1 nu/nu mouse xenografted with human A431 cells transfected with CCK2R at 0.5 MBq, iv after 4 hrs using 177Lu labeled compound by Cobra-2 gamma counter method relative to [Nle15]MG11; assay type: ADME, organism-based, Neoplasm; conditions: in vivo
[15] = molecular target: T2, Gastrin/cholecystokinin type B receptor (Homo sapiens); assay: Binding affinity to CCK2R (unknown origin) expressed in human A431 cells assessed as receptor-mediated drug internalization at 5 kBq incubated 2 to 4 hrs using 177Lu labeled compound by gamma counting method relative to control; assay type: cell-based

Row | SMILES | logD ([1]; PBS buffer, read-out: logD) | half-life at 7.5 MBq [2] [h] | remaining at 24 h, 7.5 MBq [3] [%] | pIC50 [4] | Drug uptake [5] | Drug uptake [6] [%] | Drug uptake [7] | Ratio IC50 [8] | Ratio [9] | Drug uptake [10] | Drug recovery [11] [%] | Drug uptake [12] | Ratio [13] | Stability [3] | logD ([1]; buffer) | Ratio [14] | fold change (FC) [15]
1 | CCCC[C@H](NC(=O)[C@H](Cc1c[nH]c2ccccc12)NC(=O)CNC(=O)[C@H](Cc1ccc(O)cc1)NC(=O)[C@H](C)NC(=O)[C@@H](CCC(=O)O)NC(=O)CN1CCN(CC(=O)O)CCN(CC(=O)O)CCN(CC(=O)O)CC1)c1cn([C@@H](CC(=O)O)C(=O)N[C@@H](Cc2ccccc2)C(N)=O)nn1 | -3.75 | 114 | > 50 | < 4.30 | Active | 0.2 | – | – | – | – | – | – | – | – | – | – | –
2 | CCCC[C@H](NC(=O)[C@H](Cc1c[nH]c2ccccc12)NC(=O)CNC(=O)C[C@H](Cc1ccc(O)cc1)NC(=O)[C@H](C)NC(=O)[C@@H](CCC(=O)O)NC(=O)CN1CCN(CC(=O)O)CCN(CC(=O)O)CCN(CC(=O)O)CC1)C(=O)N[C@@H](CC(=O)O)C(=O)N[C@@H](Cc1ccccc1)C(N)=O | -3.83 | 4.7 | – | 7.59 | – | 37.4 | – | – | – | – | – | – | – | – | – | – | –
3 | CCCC[C@H](NC(=O)[C@H](Cc1c[nH]c2ccccc12)NC(=O)CNC(=O)[C@H](Cc1ccc(O)cc1)NC(=O)[C@H](C)NC(=O)[C@@H](CCC(=O)O)NC(=O)CN1CCN(CC(=O)O)CCN(CC(=O)O)CCN(CC(=O)O)CC1)C(=O)N[C@@H](CC(=O)O)C(=O)N[C@@H](Cc1ccccc1)c1c[nH]nn1 | -3.69 | 34.9 | > 50 | 6.70 | – | 2.5 | – | – | – | – | – | – | – | – | – | – | –
4 | CCCC[C@H](NC(=O)[C@H](Cc1c[nH]c2ccccc12)NC(=O)CCNC(=O)[C@H](Cc1ccc(O)cc1)NC(=O)[C@H](C)NC(=O)[C@@H](CCC(=O)O)NC(=O)CN1CCN(CC(=O)O)CCN(CC(=O)O)CCN(CC(=O)O)CC1)C(=O)N[C@@H](CC(=O)O)C(=O)N[C@@H](Cc1ccccc1)C(N)=O | -3.73 | 8.5 | – | 7.73 | – | 44.5 | – | – | – | – | – | – | – | – | – | – | –
5 | CCCC[C@H](NC(=O)[C@H](Cc1c[nH]c2ccccc12)NC(=O)CNC(=O)[C@H](Cc1ccc(O)cc1)NC(=O)[C@H](C)NC(=O)[C@@H](CCC(=O)O)NC(=O)CN1CCN(CC(=O)O)CCN(CC(=O)O)CCN(CC(=O)O)CC1)C(=O)N[C@@H](CC(=O)O)c1cn([C@@H](Cc2ccccc2)C(N)=O)nn1 | -3.95 | 35.9 | > 50 | < 4.30 | – | 0.1 | – | – | – | – | – | – | – | – | – | – | –
6 | CCCC[C@H](NC(=O)[C@H](Cc1c[nH]c2ccccc12)NC(=O)CNC(=O)[C@H](Cc1ccc(O)cc1)NC(=O)[C@H](C)n1cc([C@@H](CCC(=O)O)NC(=O)CN2CCN(CC(=O)O)CCN(CC(=O)O)CCN(CC(=O)O)CC2)nn1)C(=O)N[C@@H](CC(=O)O)C(=O)N[C@@H](Cc1ccccc1)C(N)=O ({DOTA}-[X5]YGW[Nle]DF-NH2) | -3.98 | 7.7 | – | 8.10 | Active | 39.6 | Active | 2 | – | – | – | – | – | – | – | – | –
7 | CCCC[C@H](NC(=O)[C@H](Cc1c[nH]c2ccccc12)NC(=O)CNC(=O)[C@H](Cc1ccc(O)cc1)NC(=O)[C@H](C)NC(=O)[C@@H](CCC(=O)O)NC(=O)CN1CCN(CC(=O)O)CCN(CC(=O)O)CCN(CC(=O)O)CC1)C(=O)N[C@@H](CC(=O)O)C(=O)N[C@@H](Cc1ccccc1)C(N)=O ({DOTA}-[dE]AYGW[Nle]DF-NH2) | -3.86 | 3.9 | – | 7.81 | 1.48 % ID/g | 32.2 | 11.7% | – | 1.83 | < 0.9 % ID/g | 34 | Active | – | – | – | – | –
8 | CCCC[C@@H](C(=O)N[C@@H](CC(=O)O)C(=O)N[C@@H](Cc1ccccc1)C(N)=O)n1cc([C@H](Cc2c[nH]c3ccccc23)NC(=O)CNC(=O)[C@H](Cc2ccc(O)cc2)NC(=O)[C@H](C)NC(=O)[C@@H](CCC(=O)O)NC(=O)CN2CCN(CC(=O)O)CCN(CC(=O)O)CCN(CC(=O)O)CC2)nn1 ({DOTA}-[dE]AYG[X2]DF-NH2) | -3.98 | 350 | > 50 | 7.60 | Active | 33.1 | Active | – | – | – | – | – | 90 | – | – | – | –
9 | CCCC[C@H](NC(=O)[C@H](Cc1c[nH]c2ccccc12)n1cc(CNC(=O)[C@H](Cc2ccc(O)cc2)NC(=O)[C@H](C)NC(=O)[C@@H](CCC(=O)O)NC(=O)CN2CCN(CC(=O)O)CCN(CC(=O)O)CCN(CC(=O)O)CC2)nn1)C(=O)N[C@@H](CC(=O)O)C(=O)N[C@@H](Cc1ccccc1)C(N)=O ({DOTA}-[dE]AY[X3][Nle]DF-NH2) | -4 | 3.8 | – | 7.81 | Active | 41.7 | Active | – | – | – | – | – | – | Unstable | – | – | –
10 | CCCC[C@H](NC(=O)[C@H](Cc1c[nH]c2ccccc12)NC(=O)Cn1cc([C@H](Cc2ccc(O)cc2)NC(=O)[C@H](C)NC(=O)[C@@H](CCC(=O)O)NC(=O)CN2CCN(CC(=O)O)CCN(CC(=O)O)CCN(CC(=O)O)CC2)nn1)C(=O)N[C@@H](CC(=O)O)C(=O)N[C@@H](Cc1ccccc1)C(N)=O ({DOTA}-[dE]A[X1]W[Nle]DF-NH2) | – | 2.6 | – | 8.77 | 3.91 % ID/g | 54.3 | 31% | 10 | 5.81 | Active | 75 | Active | – | Unstable | -4.06 | 2.6 | 2
11 | CCCC[C@H](NC(=O)[C@H](Cc1c[nH]c2ccccc12)NC(=O)CNC(=O)[C@H](Cc1ccc(O)cc1)n1cc([C@H](C)NC(=O)[C@@H](CCC(=O)O)NC(=O)CN2CCN(CC(=O)O)CCN(CC(=O)O)CCN(CC(=O)O)CC2)nn1)C(=O)N[C@@H](CC(=O)O)C(=O)N[C@@H](Cc1ccccc1)C(N)=O ({DOTA}-[dE][X4]GW[Nle]DF-NH2) | -3.9 | 51.4 | > 50 | 7.68 | Active | 29.6 | Active | – | – | – | – | – | – | – | – | – | –

Source: ChEMBL document CHEMBL4342519, “Triazolo-Peptidomimetics: Novel Radiolabeled Minigastrin Analogs for Improved Tumor Targeting” (J Med Chem, 2020)
